How the values were obtained:
[1] = tested on: delayed type hypersensitivity (DTH) mediated inflammation in mice; experiment: In vivo model of delayed type hypersensitivity (DTH), paw inflammation score; design: species or system CF-1 mice; settings: 5 mg/kg intraperitoneal, four doses; for Inflammation Score Compound ± SEM: paw scored 16 hrs after mBSA, scale 1-5, n=5 mice/group; for reduction in inflammation score in the paw compared to vehicle: vs DMSO vehicle
Experimental: Effects of CB Compounds 1-14 on an in vivo model of delayed type hypersensitivity (DTH). Female CF-1 mice were purchased from the Jackson Laboratories (Bar Harbor Me.) and after a period of at least 3 days acclimation in the animal facility, mice were sensitized over the left inguinal lymph node with an emulsion (0.1 ml) containing methylated bovine serum albumin (mBSA, Sigma, 25 mg/ml), NaCl (0.9%), dextran 5-40×10^6 MW; 50 mg/ml (Sigma), and Freunds' incomplete adjuvant (50%). On day 19 and 20 after sensitization, mice received an intraperitoneal dose of one of CB compounds 1-14 at 5 mg/kg/body weight mouse for a total of four doses. Control animals received equal volumes of compound diluent, DMSO. Immediately following the final compound injection (4th dose), mBSA (0.4 mg/ml; 0.050 ml) was injected into the left plantar hind paw. The paw was scored 16 hrs later by 2 investigators naive to the experimental condition and according to the following criteria: 1=absence of any inflammation; 2=slight rubor and edema; 3=moderate rubor and edema with skin wrinkles; 4=severe rubor and edema without skin wrinkles and 5=severe rubor and edema with toe spreading. See also Hofmann et al. (1999, Cell 97:889-901), the entire content of which is incorporated herein in its entirety. In these experiments, n=5 mice/group.

[2] = tested on: primary murine aortic smooth muscle cells; experiment: Murine smooth muscle cell migration (scratch wound, CML AGE); assay type: cell-based, C57BL/6 mice; settings: 1 μM pre-treatment 1.5 hours, CML AGE 100 μg/ml, 7 hrs
Experimental: Effects of CB-1 to CB-14 on Murine Smooth Muscle Cell Migration. Primary murine aortic smooth muscles retrieved from wild type C57BL/6 mice were grown to 90% confluency in medium containing 10% fetal bovine serum. Cells were serum starved for 16 hrs during which time fetal bovine serum was replaced with 0.1% bovine serum albumin. Following this period of serum starvation, cells were pre-treated for 1.5 hours with the indicated Chembridge library hit denoted #1-14 at a concentration of 1 μM. At the end of that time, compounds were removed and cell monolayers were vertically scratched with a pipet tip to create a “wound” and then RAGE ligand carboxy methyl lysine human serum albumin (CML AGE), 100 μg/ml, was added for 7 hrs. Photographs of the monolayer were taken at time 0 (time of scratch/CML AGE) and at 7 hrs. The ingrowth of the cells was then noted and % area ingrowth was calculated comparing ingrowth at baseline to that at 7 hrs. N=triplicate experiments. * indicates p<0.05

RAGE tail = RAGE tail (Homo sapiens (Human), UniProt Q15109); experiment: RAGE tail fluorescence titration (Kd determination); settings: binding to RAGE tail
Experimental: Binding affinities of small molecules for either CT-RAGE or FH1 are determined by performing fluorescence titrations to generate binding isotherms and standard SPR experiments.
A number of representative amino and amido compounds of this invention were or can be tested for their inhibitory activity.
(§1) Fluorescence quenching was used to determine binding.
A number of representative heterocylic compounds of this invention were or can be tested for their inhibitory activity.
as §1, §1

[3] = tested on: primary human aortic smooth muscle cells; experiment: Human smooth muscle cell migration (scratch wound, CML AGE); assay type: cell-based; settings: 1 μM pre-treatment 1.5 hours, CML AGE 100 μg/ml, 7 hrs
Experimental: Effects of CB-1 to CB-14 on Human Smooth Muscle Cell Migration. Primary human aortic smooth muscles were purchased from Lonza and were grown to 90% confluency in medium containing 10% fetal bovine serum. Cells were serum starved for 16 hrs during which time fetal bovine serum was replaced with 0.1% bovine serum albumin. Following this period of serum starvation, cells were pre-treated for 1.5 hours with the indicated Chembridge library hit denoted #1-14 at a concentration of 1 μM. At the end of that time, compounds were removed and cell monolayers were vertically scratched with a pipet tip to create a “wound” and then RAGE ligand carboxy methyl lysine human serum albumin (CML AGE), 100 μg/ml, was added for 7 hrs. Photographs of the monolayer were taken at time 0 (time of scratch/CML AGE) and at 7 hrs. The ingrowth of the cells was then noted and % area ingrowth was calculated comparing ingrowth at baseline to that at 7 hrs. N=triplicate experiments. * indicates p<0.05 (FIG. 8)

[4] = molecular target: RAGE tail (ctRAGE) binding to mDial (Homo sapiens (Human), UniProt Q15109); experiment: Primary screen: binding of GFP RAGE tail to mDial at one concentration (10 uM); settings: 10 μM compound
Experimental: Primary screening was a two-step process in which compounds were first tested in a high throughput assay at one concentration (10 uM). Compounds that reduced binding of RAGE tail (ctRAGE) by at least 50% were then selected and subjected to 4-point dose response (10 uM, 1 uM, 0.1 uM and 0.01 uM) (FIGS. 1, 4, and 5).
Step 1. Add 50 μl anti-mDial (1:160 dilution in 0.1M NaHCO3 pH 9.6)/well. Incubate overnight at 4° C.
Step 2. Use the plate washer to aspirate anti-mDial and wash plates 4× with PBS 100 μl per well per wash.
Step 3. Add 180 μl 3% BSA in 1×PBS. Incubate for 1.5 hrs at room temperature
Step 4. Use the plate washer to aspirate the blocking solution and wash 5× with PBS 300 μl per well.
Step 5. Add 50 μl of mDial containing lysate (85 μg) and incubate at RT for 3 hours.
Step 6. Aspirate the lysate and wash the plate 5× (100 μl) on the plate washer.
Step 7. Add 25 μl PBS to the wells.
Step 8. Add 0.5 μL compound per well.
Step 9. Add 24.5 μL GFP RAGE tail (125 nM) into each well for 2 hrs at room temperature.
Step 10. Aspirate and wash 5× with PBS (100 μL) on the plate washer.
Step 11. Add 100 ul PBS in each well.
Step 12. Detection: Read on fluorescence plate reader excitation 435 nm and 485 nm emission
Compounds that blocked the binding of RAGE tail to mDial by 50% or more were subjected to 4 point dose response: 10 μM, 1 μM, 0.1 μM and 0.01 μM.

Sequence of RAGE tail (ctRAGE) binding to mDial (Q15109 364-404): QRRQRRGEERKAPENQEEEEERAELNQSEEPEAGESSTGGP
Sequence of RAGE tail (Q15109 364-404): as above

COc1cc(SC)ccc1C(=O)Nc1cccc(C)n1 [CB-1]
Inflammation Score Compound ± SEM [1]: 3.4 ± 0.55/3.4 ± 0.55
RAGE ligand CML AGE-mediated ingrowth (migration) [2]: no inhibitory effect
Kd (RAGE tail): 4 ± 1 nM
RAGE ligand CML AGE-mediated ingrowth (migration) [3]: no inhibitory effect

C=CCOc1ccc2c(C(F)(F)F)cc(=O)oc2c1 [CB-2]
Inflammation Score Compound ± SEM [1]: 3.2 ± 0.45/3.4 ± 0.55
RAGE ligand CML AGE-mediated ingrowth (migration) [2]: prevent RAGE ligand CML AGE-mediated ingrowth (migration)
Kd (RAGE tail): 6.5 ± 1 nM
RAGE ligand CML AGE-mediated ingrowth (migration) [3]: prevent RAGE ligand CML AGE-mediated ingrowth (migration)

Cc1nc2ccccc2n1CC(O)Cn1c2ccccc2c2ccccc21 (centres unmarked) [CB-3]
Inflammation Score Compound ± SEM [1]: 2.2 ± 0.45/3.4 ± 0.55
reduction in inflammation score in the paw compared to vehicle [1]: statistically significant reduction in inflammation score
RAGE ligand CML AGE-mediated ingrowth (migration) [2]: prevent RAGE ligand CML AGE-mediated ingrowth (migration)
Kd (RAGE tail): 18 ± 1 nM
RAGE ligand CML AGE-mediated ingrowth (migration) [3]: prevent RAGE ligand CML AGE-mediated ingrowth (migration)

OC(Cn1ccc2ccccc21)Cn1cnc2ccccc21 (centres unmarked) [CB-4]
Inflammation Score Compound ± SEM [1]: 3.0 ± 0.71/3.4 ± 0.55
RAGE ligand CML AGE-mediated ingrowth (migration) [2]: prevent RAGE ligand CML AGE-mediated ingrowth (migration)
Kd (RAGE tail): 2 ± 1 nM
RAGE ligand CML AGE-mediated ingrowth (migration) [3]: prevent RAGE ligand CML AGE-mediated ingrowth (migration)

Oc1cccc(Nc2nc(-c3ccc(F)cc3F)cs2)c1 [CB-5]
Inflammation Score Compound ± SEM [1]: 3.6 ± 0.55/3.4 ± 0.55
RAGE ligand CML AGE-mediated ingrowth (migration) [2]: prevent RAGE ligand CML AGE-mediated ingrowth (migration)
RAGE ligand CML AGE-mediated ingrowth (migration) [3]: prevent RAGE ligand CML AGE-mediated ingrowth (migration)

COc1cc(NC(C)=O)c(Cl)cc1C(=O)Nc1nccs1 [CB-6]
Inflammation Score Compound ± SEM [1]: 3.0 ± 0.71/3.6 ± 0.55
RAGE ligand CML AGE-mediated ingrowth (migration) [2]: prevent RAGE ligand CML AGE-mediated ingrowth (migration)
RAGE ligand CML AGE-mediated ingrowth (migration) [3]: prevent RAGE ligand CML AGE-mediated ingrowth (migration)

COc1ccccc1-c1cc(C(F)(F)F)nc(N2CCOCC2)n1 [CB-7]
Inflammation Score Compound ± SEM [1]: 3.4 ± 0.55/3.6 ± 0.55
RAGE ligand CML AGE-mediated ingrowth (migration) [2]: prevent RAGE ligand CML AGE-mediated ingrowth (migration)
Kd (RAGE tail): 0.55 ± 0.05 nM
RAGE ligand CML AGE-mediated ingrowth (migration) [3]: prevent RAGE ligand CML AGE-mediated ingrowth (migration)

COC(=O)c1cc(OC)c(OC)cc1NC(=O)C1Oc2ccccc2OC1C (centres unmarked) [CB-8]
Inflammation Score Compound ± SEM [1]: 3.4 ± 0.55/3.6 ± 0.55
RAGE ligand CML AGE-mediated ingrowth (migration) [2]: prevent RAGE ligand CML AGE-mediated ingrowth (migration)
Kd (RAGE tail): 2 ± 0.5 nM
RAGE ligand CML AGE-mediated ingrowth (migration) [3]: prevent RAGE ligand CML AGE-mediated ingrowth (migration)

Cc1ccc(S(=O)(=O)N(C)C(F)F)cc1 [CB-9]
Inflammation Score Compound ± SEM [1]: 3.6 ± 0.55/3.6 ± 0.55
RAGE ligand CML AGE-mediated ingrowth (migration) [2]: prevent RAGE ligand CML AGE-mediated ingrowth (migration)
Kd (RAGE tail): 17300 ± 500 nM
RAGE ligand CML AGE-mediated ingrowth (migration) [3]: prevent RAGE ligand CML AGE-mediated ingrowth (migration)

CC1=NN(c2nc3ccccc3[nH]2)C(=O)C1CCC(C)C (centres unmarked) [CB-10]
Inflammation Score Compound ± SEM [1]: 3.2 ± 0.84/3.6 ± 0.55
RAGE ligand CML AGE-mediated ingrowth (migration) [2]: prevent RAGE ligand CML AGE-mediated ingrowth (migration)
RAGE ligand CML AGE-mediated ingrowth (migration) [3]: prevent RAGE ligand CML AGE-mediated ingrowth (migration)

Cc1cc2n(c1)CCn1c(C)ccc1-2 [CB-11]
Inflammation Score Compound ± SEM [1]: 3.2 ± 0.45/3.4 ± 0.55
RAGE ligand CML AGE-mediated ingrowth (migration) [2]: prevent RAGE ligand CML AGE-mediated ingrowth (migration)
Kd (RAGE tail): 1.2 ± 0.5 nM
RAGE ligand CML AGE-mediated ingrowth (migration) [3]: prevent RAGE ligand CML AGE-mediated ingrowth (migration)

COC(=O)c1cc(-c2ccc(NC(C)=O)cc2)nc2ccccc12 [CB-12]
Inflammation Score Compound ± SEM [1]: 2.4 ± 0.55/3.4 ± 0.55
reduction in inflammation score in the paw compared to vehicle [1]: statistically significant reduction in inflammation score
RAGE ligand CML AGE-mediated ingrowth (migration) [2]: prevent RAGE ligand CML AGE-mediated ingrowth (migration)
Kd (RAGE tail): > 100000 nM
RAGE ligand CML AGE-mediated ingrowth (migration) [3]: prevent RAGE ligand CML AGE-mediated ingrowth (migration)

Cc1c(Cl)cccc1NC(=O)CNC(=O)c1ccccc1F [CB-13]
Inflammation Score Compound ± SEM [1]: 3.4 ± 0.55/3.4 ± 0.55
RAGE ligand CML AGE-mediated ingrowth (migration) [2]: prevent RAGE ligand CML AGE-mediated ingrowth (migration)
Kd (RAGE tail): 123 ± 1 nM
RAGE ligand CML AGE-mediated ingrowth (migration) [3]: prevent RAGE ligand CML AGE-mediated ingrowth (migration)

Oc1ccc(NCc2ccc(Br)cc2)cc1 [CB-14]
Inflammation Score Compound ± SEM [1]: 3.2 ± 0.45/3.4 ± 0.55
RAGE ligand CML AGE-mediated ingrowth (migration) [2]: prevent RAGE ligand CML AGE-mediated ingrowth (migration)
Kd (RAGE tail): 1.4 ± 0.3 nM
RAGE ligand CML AGE-mediated ingrowth (migration) [3]: prevent RAGE ligand CML AGE-mediated ingrowth (migration)

CC(=O)Nc1ccc(C(=O)Nc2nccs2)cc1 [CD-1]
inhibition at 10 µM [4]: 31%

OC(Cn1ccnc1)Cn1c2ccccc2c2ccccc21 (centres unmarked) [CD-4]
Kd (RAGE tail): 75 nM

Cn1c(=O)n(CC(O)Cn2c3ccccc3c3ccccc32)c2ccccc21 (centres unmarked) [CD-6]
Kd (RAGE tail): 4 nM

CN(Cc1ccccc1)CC(O)Cn1cnc2ccccc21 (centres unmarked) [CD-7]
inhibition at 10 µM [4]: 31%

N#Cc1ccc(OCC(O)Cn2cnc3ccccc32)cc1 (centres unmarked) [CD-8]
inhibition at 10 µM [4]: 27%

O=C(O)COc1ccc2c(C(F)(F)F)cc(=O)oc2c1 [CD-12]
inhibition at 10 µM [4]: 11%

OC(COCc1ccccc1)Cn1cnc2ccccc21 (centres unmarked) [CD-14]
inhibition at 10 µM [4]: 26%

OC(COc1cccc2ccccc12)Cn1cnc2ccccc21 (centres unmarked) [CD-16]
inhibition at 10 µM [4]: 69%

OC(CN(c1ccccc1)c1ccccc1)Cn1cnc2ccccc21 (centres unmarked) [CD-18]
inhibition at 10 µM [4]: 45%

Cc1nccn1CC(O)Cn1c2ccccc2c2ccccc21 (centres unmarked) [CD-29]
Kd (RAGE tail): 78 nM

Reference: patent publication US10729695B2, “Amino, amido and heterocyclic compounds as modulators of RAGE activity and uses thereof” (The Research Foundation for the State University of New York, priority 2013, dated 2020)
